Experimental data as given in article PMC5833849, “Sensitizing tumor cells to conventional drugs: HSP70 chaperone inhibitors, their selection and application in cancer models” (Cell Death & Disease, 2018).
Where two headings read alike, the source gives them in different places.

How the values were obtained:
Hsp70 [1] = target: T1, Hsp70 (Homo sapiens, UniProt P0DMV8); test: microscale thermophoresis (also DARTS; inhibition of substrate binding and luciferase refolding by Hsp70)
T1 construct: gene HSPA1A; Recombinant human Hsp70

Hsp70 [2] = target: T1, Hsp70; test: inhibition of Hsp70 binding to carboxymethylated lactalbumin ([…] at […]); luciferase refolding ([…] at […]); type: biochemical
Hsp70 [3] = target: T1, Hsp70; test: as above; type: biochemical; remark: listed apart in the source

T1 sequence (P0DMV8 2-641): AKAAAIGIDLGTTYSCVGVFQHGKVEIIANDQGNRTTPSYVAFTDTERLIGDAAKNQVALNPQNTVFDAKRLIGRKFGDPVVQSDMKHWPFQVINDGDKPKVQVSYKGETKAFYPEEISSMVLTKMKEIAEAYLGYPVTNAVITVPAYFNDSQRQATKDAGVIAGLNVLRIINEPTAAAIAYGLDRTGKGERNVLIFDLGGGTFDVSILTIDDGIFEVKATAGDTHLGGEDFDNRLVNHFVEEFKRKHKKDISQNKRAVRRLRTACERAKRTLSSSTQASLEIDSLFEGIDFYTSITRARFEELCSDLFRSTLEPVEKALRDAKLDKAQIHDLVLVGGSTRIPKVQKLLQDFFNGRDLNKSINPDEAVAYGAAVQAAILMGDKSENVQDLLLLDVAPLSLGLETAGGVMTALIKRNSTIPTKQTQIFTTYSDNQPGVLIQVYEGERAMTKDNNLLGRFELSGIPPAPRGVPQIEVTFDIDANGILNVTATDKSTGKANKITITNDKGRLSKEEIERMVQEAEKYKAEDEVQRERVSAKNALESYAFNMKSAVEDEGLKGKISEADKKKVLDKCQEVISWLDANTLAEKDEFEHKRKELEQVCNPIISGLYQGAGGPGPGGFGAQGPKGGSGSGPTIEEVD

## COc1cc2c(c(OC)c1OC)-c1ccc(NCCN)c(=O)cc1[C@@H](NC(C)=O)CC2 [AEAC]
Hsp70 [1]
  Kd: 0.149 ± 0.0496 µM

## CCn1c(=Cc2cccc[n+]2CC)sc(=C2Sc3ccccc3N2C)c1=O [MKT-077]
Hsp70 [2]
  inhibition at 1 µM: 27%

## N#Cc1ccc(COC[C@H]2O[C@@H](n3c(NCc4ccc(Cl)c(Cl)c4)nc4c(N)ncnc43)[C@H](O)[C@@H]2O)cc1 [VER-155008]
Hsp70 [3]
  inhibition at 1 µM: 19%
